What was measured:
His-tagged Parp-1 = biological target: T1, His-tagged Parp-1 (Homo sapiens, UniProt P09874); assay: PARP-1 autoparsylation HTRF assay; format: biochemical; settings: 150 min at 23° C
T1 construct: purchased Enzo Life Sciences GmbH, Lörrach, Germany
Excerpt: Description of the PARP1 Assay
Biochemical Activity Testing of PARP-1: Autoparsylation Assay
The autoparsylation assay is run in two steps: the enzymatic reaction in which His-tagged Parp-1 transfers biotinylated ADP-ribose/ADP-ribose to itself from biotinylated NAD/NAD as co-substrate and the detection reaction where a time resolved FRET between cryptate labelled anti-His antibody bound to the His tag of the enzyme and Xlent® labelled-streptavidin bound the biotin parsylation residue is analysed. The autoparsylation activity is detectable directly via the increase in HTRF signal.
The autoparsylation assay is performed as 384-well HTRF® (Cisbio, Codolet, France) assay format in Greiner low volume nb 384-well microtiter plates. 35 nM His-tagged Parp-1 (human, recombinant, Enzo Life Sciences GmbH, Lörrach, Germany) and a mixture of 125 nM bio-NAD (Biolog, Life science Inst., Bremen, Germany) and 800 nM NAD as co-substrate are incubated in a total volume of 6 μl (100 mM Tris/HCl, 4 mM Mg-chloride, 0.01% IGEPAL® CA630, 1 mM DTT, 0.5% DMSO, pH 8, 13 ng/μl activated DNA (BPS Bioscience, San Diego, US)) in the absence or presence of the test compound (10 dilution concentrations) for 150 min at 23° C. The reaction is stopped by the addition of 4 μl of the Stop/detection solution (70 nM SA-Xlent® (Cisbio, Codolet, France), 2.5 nM Anti-His-K® (Eu-labelled anti-His, Cisbio, Codolet, France) in 50 mM HEPES, 400 mM KF, 0.1% BSA, 20 mM EDTA, pH 7.0). After 1 h incubation at room temperature the HTRF is measured with an Envision multimode reader (Perkin Elmer LAS Germany GmbH) at excitation wavelength 340 nm (laser mode) and emission wavelengths 615 nm and 665 nm. The ratio of the emission signals is determined. The full value used is the inhibitor-free reaction. The pharmacological zero value used is Olaparib (LClabs, Woburn, US) in a final concentration of 1 μM. The inhibitory values (IC50) are determined using either the program Symyx Assay Explorer® or Condosseo® from GeneData.

[1] = test system: Tankyrase (Axin2 level in DLD1 cells); assay: Cellular inhibition of Tankyrase, Axin2 Luminex assay in DLD1 cells; format: cell-based; settings: Homo sapiens, DLD-1, 24 hours, Axin2 level increase, read-out: IC50 Cell assay
Procedure: Measurement of Cellular Inhibition of Tankyrase
Since Tankyrases have been described to modulate cellular level of Axin2 (Huang et al., 2009; Nature) the increase of Axin2 level is used as read-out for determination of cellular inhibition of Tankyrases in a Luminex based assay.
Cells of the colon carcinoma cell line DLD1 are plated in 96 well plates with 1.5×10^4 cells per well. Next day, cells are treated with a serial dilution of test compound in seven steps as triplicates with a final DMSO concentration of 0.3%. After 24 hours, cells are lysed in lysis buffer (20 mM Tris/HCl pH 8.0, 150 mM NaCl, 1% NP40, 10% Glycerol) and lysates are cleared by centrifugation through a 96 well filter plate (0.65 μm). Axin2 protein is isolated from cell lysates by incubation with a monoclonal anti-Axin2 antibody (R&D Systems #MAB6078) that is bound to fluorescent carboxybeads. Then, bound Axin2 is specifically detected with a polyclonal anti-Axin2 antibody (Cell Signaling #2151) and an appropriate PE-fluorescent secondary antibody. The amount of isolated Axin2 protein is determined in a Luminex^200 machine (Luminex Corporation) according to the manufacturer's instruction by counting 100 events per well. Inhibition of Tankyrase by test compounds results in higher levels of Axin2 which directly correlates with an increase of detectable fluorescence. As controls cells are treated with solvent alone (neutral control) and with a Tankyrase reference inhibitor IWR-2 (3E-06 M) which refers as control for maximum increase of Axin2. For analysis, the obtained data are normalized against the untreated solvent control and fitted for determination of the EC50 values using the Assay Explorer software (Accelrys).

T1 sequence (P09874 whole entry): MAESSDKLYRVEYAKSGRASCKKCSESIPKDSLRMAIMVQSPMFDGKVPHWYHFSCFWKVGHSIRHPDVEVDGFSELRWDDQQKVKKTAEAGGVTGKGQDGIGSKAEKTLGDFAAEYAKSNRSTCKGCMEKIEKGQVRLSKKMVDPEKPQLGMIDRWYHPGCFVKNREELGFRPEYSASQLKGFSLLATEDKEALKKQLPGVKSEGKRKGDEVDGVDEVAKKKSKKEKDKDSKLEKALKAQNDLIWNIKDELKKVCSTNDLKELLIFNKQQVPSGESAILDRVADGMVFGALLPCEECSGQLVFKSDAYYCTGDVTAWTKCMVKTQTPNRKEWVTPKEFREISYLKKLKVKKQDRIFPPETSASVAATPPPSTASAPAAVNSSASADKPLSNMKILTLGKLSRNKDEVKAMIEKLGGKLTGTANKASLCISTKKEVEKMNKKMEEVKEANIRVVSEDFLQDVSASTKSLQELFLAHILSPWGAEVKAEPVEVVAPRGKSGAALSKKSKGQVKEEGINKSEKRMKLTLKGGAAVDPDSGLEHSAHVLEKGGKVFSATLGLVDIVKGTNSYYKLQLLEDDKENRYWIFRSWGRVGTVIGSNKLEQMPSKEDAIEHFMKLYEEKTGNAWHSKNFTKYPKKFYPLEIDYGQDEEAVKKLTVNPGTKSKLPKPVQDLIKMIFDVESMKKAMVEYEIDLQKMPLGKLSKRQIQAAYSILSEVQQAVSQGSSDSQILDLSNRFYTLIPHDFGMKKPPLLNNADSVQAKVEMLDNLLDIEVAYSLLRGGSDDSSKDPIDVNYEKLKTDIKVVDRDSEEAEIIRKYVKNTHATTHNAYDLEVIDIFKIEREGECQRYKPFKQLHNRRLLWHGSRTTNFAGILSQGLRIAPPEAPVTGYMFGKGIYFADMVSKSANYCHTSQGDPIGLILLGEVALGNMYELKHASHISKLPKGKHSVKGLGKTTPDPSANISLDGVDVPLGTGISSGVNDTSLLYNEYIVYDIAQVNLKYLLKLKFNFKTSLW

Compound	IC50 (His-tagged Parp-1)	IC50 [1]
O=C(Cc1ccccc1)Nc1nncc2ccccc12 [Compound A1, 2-phenyl-N-phthalazin-1-yl-acetamide]	3 to 50 µM	3 to 50 µM
COc1cccc(CC(=O)Nc2nncc3ccccc23)c1 [Compound A2, 2-(3-methoxyphenyl)-N-phthalazin-1-yl-acetamide]	3 to 50 µM	3 to 50 µM
COc1ccc(CC(=O)Nc2nncc3ccccc23)cc1 [Compound A3, 2-(4-methoxyphenyl)-N-phthalazin-1-yl-acetamide]	3 to 50 µM	3 to 50 µM
CCOc1ccc(CC(=O)Nc2nncc3ccccc23)cc1 [Compound A4, 2-(4-ethoxyphenyl)-N-phthalazin-1-yl-acetamide]	3 to 50 µM	3 to 50 µM
O=C(CCC1CCCC1)Nc1nncc2ccccc12 [Compound A15, 3-cyclopentyl-N-phthalazin-1-yl-propionamide]	3 to 50 µM	3 to 50 µM
O=C(CCc1ccccc1Cl)Nc1nncc2ccccc12 [Compound A16, 3-(2-chloro-phenyl)-N-phthalazin-1-yl-propionamide]	3 to 50 µM	3 to 50 µM
Cc1cccc2cnnc(NC(=O)Cc3ccccc3)c12 [Compound A18, N-(8-methyl-phthalazin-1-yl)-2-phenyl-acetamide]	0.3 to 3 µM	3 to 50 µM
COc1ccc(CC(=O)Nc2nncc3cccc(C)c23)cc1 [Compound A20, 2-(4-methoxy-phenyl)-N-(8-methyl-phthalazin-1-yl)-acetamide]	0.3 to 3 µM	3 to 50 µM
